SMILES strings stand for the structures.

This is an account of results in patent US7932270B2 (Cytokinetics, Inc., priority 2006, dated 2011).

In this assay the target is T1, chicken gizzard smooth muscle myosin subfragment-1 chemically crosslinked to cardiac or skeletal actin (Gallus gallus, UniProt P10587).
T1 construct: chicken gizzard smooth muscle myosin subfragment-1; from tissue; host or cells: chicken gizzard
T1 sequence (P02607 2-151): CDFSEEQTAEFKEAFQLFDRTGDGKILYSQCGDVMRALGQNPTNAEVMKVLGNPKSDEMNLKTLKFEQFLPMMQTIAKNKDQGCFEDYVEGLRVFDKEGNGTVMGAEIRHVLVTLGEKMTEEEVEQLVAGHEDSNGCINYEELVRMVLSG
T1 sequence (P10587 84-789): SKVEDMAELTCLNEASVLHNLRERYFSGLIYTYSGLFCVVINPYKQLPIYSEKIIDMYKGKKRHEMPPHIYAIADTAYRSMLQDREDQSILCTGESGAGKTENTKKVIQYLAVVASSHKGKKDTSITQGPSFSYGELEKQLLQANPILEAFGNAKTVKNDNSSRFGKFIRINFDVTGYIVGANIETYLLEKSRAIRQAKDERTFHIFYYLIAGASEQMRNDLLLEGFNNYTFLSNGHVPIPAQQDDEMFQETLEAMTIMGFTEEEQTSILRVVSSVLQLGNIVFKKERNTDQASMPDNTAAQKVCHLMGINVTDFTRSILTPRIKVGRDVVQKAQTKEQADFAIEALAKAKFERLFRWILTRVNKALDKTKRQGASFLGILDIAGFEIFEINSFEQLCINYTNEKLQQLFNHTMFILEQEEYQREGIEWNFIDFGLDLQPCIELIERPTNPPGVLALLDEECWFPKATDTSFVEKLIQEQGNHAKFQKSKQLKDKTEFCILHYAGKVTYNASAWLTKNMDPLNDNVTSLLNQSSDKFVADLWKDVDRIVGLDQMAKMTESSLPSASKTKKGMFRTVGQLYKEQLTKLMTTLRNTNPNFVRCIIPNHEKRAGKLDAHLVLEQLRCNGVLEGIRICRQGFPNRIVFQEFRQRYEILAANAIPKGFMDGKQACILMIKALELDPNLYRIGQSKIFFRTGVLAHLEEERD
The experiment in a line: Smooth muscle myosin ATPase dose response assay (pyruvate kinase/horseradish peroxidase/pyruvate oxidase-coupled, amplex red fluorescence). The format is biochemical. The note with it: read-out: IC50 Arithmetic Mean. The procedure, abridged: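 Chicken gizzard myosin S1 crosslinked to cardiac or skeletal actin, titrated to a set hydrolysis rate; 0.15 mM ATP, 12 mM PIPES pH 7.00, 100 mM KCl, 2 mM MgCl2. Pyruvate kinase/pyruvate oxidase/HRP coupling with amplex red fluorescence; IC50 from 4-parameter fit.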
`N#Cc1ccc(CNC(=O)c2ccc(-c3ccccc3C#N)nc2NCCc2cccc(F)c2)cc1` [(6-(2-cyanophenyl)-2-{[2-(3-fluorophenyl)ethyl]amino}(3-pyridyl))-N-[(4-cyanophenyl)methyl]carboxamide]: the IC50 (commonly the point on the concentration scale where inhibition reaches its midpoint) was determined as 968 nM. Take `N#Cc1ccccc1-c1ccc(C(=O)NCc2ccc(F)cc2)c(NCCc2cccc(F)c2)n1` [(6-(2-cyanophenyl)-2-{[2-(3-fluorophenyl)ethyl]amino}(3-pyridyl))-N-[(4-fluorophenyl)methyl]carboxamide]: the IC50 was found to be 2110 nM.

Turning to `Cc1ccc(CNC(=O)c2ccc(-c3ccccc3C#N)nc2NCCc2cccc(F)c2)cc1` [(6-(2-cyanophenyl)-2-{[2-(3-fluorophenyl)ethyl]amino}(3-pyridyl))-N-[(4-methylphenyl)methyl]carboxamide], the IC50 came out at 24300 nM. The same measure for `COc1ccc(CNC(=O)c2ccc(-c3ccccc3C#N)nc2NCCc2cccc(F)c2)cn1` [(6-(2-cyanophenyl)-2-{[2-(3-fluorophenyl)ethyl]amino}(3-pyridyl))-N-[(6-methoxy(3-pyridyl))methyl]carboxamide]: 8100 nM; for `Cc1cccc(CNC(=O)c2ccc(-c3ccccc3C#N)nc2NCCc2cccc(F)c2)n1` [(6-(2-cyanophenyl)-2-{[2-(3-fluorophenyl)ethyl]amino}(3-pyridyl))-N-[(6-methyl(2-pyridyl))methyl]carboxamide]: 54 nM. The same measure for `Cc1ccc(CNC(=O)c2ccc(-c3ccccc3C#N)nc2NCCc2cccc(F)c2)cn1` [(6-(2-cyanophenyl)-2-{[2-(3-fluorophenyl)ethyl]amino}(3-pyridyl))-N-[(6-methyl(3-pyridyl))methyl]carboxamide]: 426 nM; for `N#Cc1ccccc1-c1ccc(C(=O)NCc2ccc(N3CCOCC3)nc2)c(NCCc2cccc(F)c2)n1` [(6-(2-cyanophenyl)-2-{[2-(3-fluorophenyl)ethyl]amino}(3-pyridyl))-N-[(6-morpholin-4-yl(3-pyridyl))methyl]carboxamide]: 16900 nM; for `N#Cc1ccccc1-c1ccc(C(=O)NCC2CCCC(=O)N2)c(NCCc2cccc(F)c2)n1` (stereo not drawn) [(6-(2-cyanophenyl)-2-{[2-(3-fluorophenyl)ethyl]amino}(3-pyridyl))-N-[(6-oxo(2-piperidyl))methyl]carboxamide]: 29 nM.

In the case of `N#Cc1ccccc1-c1ccc(C(=O)NCc2ccc(N3CCNCC3)nc2)c(NCCc2cccc(F)c2)n1` [(6-(2-cyanophenyl)-2-{[2-(3-fluorophenyl)ethyl]amino}(3-pyridyl))-N-[(6-piperazinyl(3-pyridyl))methyl]carboxamide], the IC50 was 1750 nM. For `N#Cc1ccccc1-c1ccc(C(=O)NCc2ccc(N3CCCC3)nc2)c(NCCc2cccc(F)c2)n1` [(6-(2-cyanophenyl)-2-{[2-(3-fluorophenyl)ethyl]amino}(3-pyridyl))-N-[(6-pyrrolidinyl(3-pyridyl))methyl]carboxamide], the IC50 came out at 66600 nM. As for `N#Cc1ccccc1-c1ccc(C(=O)NCC2CCCCC(=O)N2)c(NCCc2cccc(F)c2)n1` (stereo not drawn) [(6-(2-cyanophenyl)-2-{[2-(3-fluorophenyl)ethyl]amino}(3-pyridyl))-N-[(7-oxoazaperhydroepin-2-yl)methyl]carboxamide], the IC50 came out at 95 nM.

Take `CNC(=O)NCCNC(=O)c1ccc(-c2ccccc2C#N)nc1NCCc1cccc(F)c1` [(6-(2-cyanophenyl)-2-{[2-(3-fluorophenyl)ethyl]amino}(3-pyridyl))-N-{2-[(methylamino)carbonylamino]ethyl}carboxamide]: the IC50 is 866 nM.

In the case of `CS(=O)(=O)NCCNC(=O)c1ccc(-c2ccccc2C#N)nc1NCCc1cccc(F)c1` [(6-(2-cyanophenyl)-2-{[2-(3-fluorophenyl)ethyl]amino}(3-pyridyl))-N-{2-[(methylsulfonyl)amino]ethyl}carboxamide], the IC50 amounted to 326 nM. For the compound `CN(CCNC(=O)c1ccc(-c2ccccc2C#N)nc1NCCc1cccc(F)c1)S(C)(=O)=O` [(6-(2-cyanophenyl)-2-{[2-(3-fluorophenyl)ethyl]amino}(3-pyridyl))-N-{2-[methyl(methylsulfonyl)amino]ethyl}carboxamide], the IC50 was 1380 nM. Turning to `CC(C)(CNC(=O)c1ccc(-c2ccccc2C#N)nc1NCCc1cccc(F)c1)NS(C)(=O)=O` [(6-(2-cyanophenyl)-2-{[2-(3-fluorophenyl)ethyl]amino}(3-pyridyl))-N-{2-methyl-2-[(methylsulfonyl)amino]propyl}carboxamide], the IC50 is 1470 nM. The same measure for `N#Cc1ccccc1-c1ccc(C(=O)NCC2CCCN(CCO)C2=O)c(NCCc2cccc(F)c2)n1` (stereo not drawn) [(6-(2-cyanophenyl)-2-{[2-(3-fluorophenyl)ethyl]amino}(3-pyridyl))-N-{[1-(2-hydroxyethyl)-2-oxo(3-piperidyl)]methyl}carboxamide]: 59 nM; for `N#Cc1ccccc1-c1ccc(C(=O)NCC2CCCN(CCN=[N+]=[N-])C2=O)c(NCCc2cccc(F)c2)n1` (stereo not drawn) [(6-(2-cyanophenyl)-2-{[2-(3-fluorophenyl)ethyl]amino}(3-pyridyl))-N-{[1-(3-diazo-3-azaprop-3-enyl)-2-oxo(3-piperidyl)]methyl}carboxamide]: 412 nM.

On to `N#Cc1ccccc1-c1ccc(C(=O)NCC2(CCN=[N+]=[N-])CCCNC2=O)c(NCCc2cccc(F)c2)n1` (stereo not drawn) [(6-(2-cyanophenyl)-2-{[2-(3-fluorophenyl)ethyl]amino}(3-pyridyl))-N-{[3-(3-diazo-3-azaprop-3-enyl)-2-oxo(3-piperidyl)]methyl}carboxamide], for which the half-inhibitory concentration (IC50) turned out to be 15800 nM. In the case of `N#Cc1ccccc1-c1ccc(C(=O)NCc2ncccc2C(F)(F)F)c(NCCc2cccc(F)c2)n1` [(6-(2-cyanophenyl)-2-{[2-(3-fluorophenyl)ethyl]amino}(3-pyridyl))-N-{[3-(trifluoromethyl)(2-pyridyl)]methyl}carboxamide] it was 603 nM; in that of `N#Cc1ccccc1-c1ccc(C(=O)NCc2cncc(CO)c2)c(NCCc2cccc(F)c2)n1` [(6-(2-cyanophenyl)-2-{[2-(3-fluorophenyl)ethyl]amino}(3-pyridyl))-N-{[5-(hydroxymethyl)(3-pyridyl)]methyl}carboxamide], 81 nM; in that of `N#Cc1ccccc1-c1ccc(C(=O)NCc2ccc(C(F)(F)F)cn2)c(NCCc2cccc(F)c2)n1` [(6-(2-cyanophenyl)-2-{[2-(3-fluorophenyl)ethyl]amino}(3-pyridyl))-N-{[5-(trifluoromethyl)(2-pyridyl)]methyl}carboxamide], 1500 nM. As to `N#Cc1ccccc1-c1ccc(C(=O)NCc2cccc(CO)n2)c(NCCc2cccc(F)c2)n1` [(6-(2-cyanophenyl)-2-{[2-(3-fluorophenyl)ethyl]amino}(3-pyridyl))-N-{[6-(hydroxymethyl)(2-pyridyl)]methyl}carboxamide], the IC50 was 37 nM. The same measure for `CNc1ccc(CNC(=O)c2ccc(-c3ccccc3C#N)nc2NCCc2cccc(F)c2)cn1` [(6-(2-cyanophenyl)-2-{[2-(3-fluorophenyl)ethyl]amino}(3-pyridyl))-N-{[6-(methylamino)(3-pyridyl)]methyl}carboxamide]: 298 nM. As for `N#Cc1ccccc1-c1ccc(C(=O)NCc2cccc(C(F)(F)F)n2)c(NCCc2cccc(F)c2)n1` [(6-(2-cyanophenyl)-2-{[2-(3-fluorophenyl)ethyl]amino}(3-pyridyl))-N-{[6-(trifluoromethyl)(2-pyridyl)]methyl}carboxamide], the IC50 came to 604 nM. The same measure for `Cc1cc(-c2ccccc2C#N)nc(NCCc2cccc(F)c2)c1C(=O)NCc1cccnc1` [(6-(2-cyanophenyl)-2-{[2-(3-fluorophenyl)ethyl]amino}-4-methyl(3-pyridyl))-N-(3-pyridylmethyl)carboxamide]: 1080 nM. On to `O=C(NCc1cccnc1)c1ccc(-c2ccccc2F)nc1NCCc1cccc(F)c1` [(6-(2-fluorophenyl)-2-{[2-(3-fluorophenyl)ethyl]amino}(3-pyridyl))-N-(3-pyridylmethyl)carboxamide], for which the IC50 came to 139 nM. For `O=C(NCc1cccnc1)c1ccc(-c2ccc(F)c(F)c2)nc1NCCc1cccc(F)c1` [(6-(3,4-difluorophenyl)-2-{[2-(3-fluorophenyl)ethyl]amino}(3-pyridyl))-N-(3-pyridylmethyl)carboxamide], the half-inhibitory concentration (IC50) turned out to be 534 nM. On to `Cn1cc(-c2ccc(C(=O)NCc3cccnc3)c(NCCc3cccc(F)c3)n2)c(C#N)n1` [(6-(3-cyano-1-methylpyrazol-4-yl)-2-{[2-(3-fluorophenyl)ethyl]amino}(3-pyridyl))-N-(3-pyridylmethyl)carboxamide], for which the IC50 was 47 nM.

For `O=C(NCc1cccnc1)c1ccc(-c2cccc(F)c2)nc1NCCc1cccc(F)c1` [(6-(3-fluorophenyl)-2-{[2-(3-fluorophenyl)ethyl]amino}(3-pyridyl))-N-(3-pyridylmethyl)carboxamide], the IC50 came to 157 nM. In the case of `N#Cc1cscc1-c1ccc(C(=O)NCc2cccnc2)c(NCCc2cccc(F)c2)n1` [(6-(4-cyano(3-thienyl))-2-{[2-(3-fluorophenyl)ethyl]amino}(3-pyridyl))-N-(3-pyridylmethyl)carboxamide] it was 14 nM; in that of `O=C(NCc1cccnc1)c1ccc(-c2ccc(F)cc2)nc1NCCc1cccc(F)c1` [(6-(4-fluorophenyl)-2-{[2-(3-fluorophenyl)ethyl]amino}(3-pyridyl))-N-(3-pyridylmethyl)carboxamide], 198 nM. In the case of `CC(=O)c1ccc(-c2ccc(C(=O)NCc3cccnc3)c(NCCc3cccc(F)c3)n2)s1` [(6-(5-acetyl(2-thienyl))-2-{[2-(3-fluorophenyl)ethyl]amino}(3-pyridyl))-N-(3-pyridylmethyl)carboxamide] it was 178 nM.

Regarding `N#Cc1ccc(-c2ccc(C(=O)NCc3cccnc3)c(NCCc3cccc(F)c3)n2)s1` [(6-(5-cyano(2-thienyl))-2-{[2-(3-fluorophenyl)ethyl]amino}(3-pyridyl))-N-(3-pyridylmethyl)carboxamide], the IC50 is 280 nM.
